row,melting point [°C],Structure (SMILES)
1,124 to 126,CC1=Cc2cc3c(cc2C(c2ccc(N)cc2)=NN1c1ncon1)OCO3.Cl
2,192 to 194,"CC1Cc2cc3c(cc2C(c2ccc(N)cc2)=NN1c1nncs1)OCO3 (racemic) (hydrate or solvate) [Example 83, (±)-5-(4-Aminophenyl)-8-methyl-7-(1,3,4-thiadiazol-2-yl)-8,9-dihydro-7H-1,3-dioxolo-[4,5-h][2,3]benzodiazepine]"
3,236 to 238,"CC(=O)Nc1ccc(C2=NN(c3nc(C)cs3)C(C)Cc3cc4c(cc32)OCO4)cc1 (racemic) (hydrate or solvate) [Example 121, (±)-5-(4-Acetylaminophenyl)-8-methyl-7-(4-methyl-thiazol-2-yl)-8,9-dihydro-7H-1,3-dioxolo-[4,5-h][2,3]benzodiazepine]"
4,163 to 164,"CCc1nnc(N2N=C(c3ccc([N+](=O)[O-])cc3)c3cc4c(cc3CC2C)OCO4)s1 (racemic) [Example 30, (±)-7-(5-Ethyl-1,3,4-thiadiazol-2-yl)-8-methyl-5-(4-nitrophenyl) 8,9-dihydro-7H-1,3-dioxolo[4,5-h][2,3]benzodiazepine]"
5,246 to 247,"CC1Cc2cc3c(cc2C(c2ccc([N+](=O)[O-])cc2)=NN1c1nc(=O)n(C2CC2)s1)OCO3 (racemic) [Example 47, (±)-7-(2-Cyclopropyl-3-oxo-2,3-dihydro-1,2,4-thiadiazol-5-yl)-8-methyl-5-(4-nitrophenyl)-8,9-dihydro-7H-1,3-dioxolo[4,5-h][2,3]benzodiazepine]"
6,145 to 150,"CC1Cc2cc3c(cc2C(c2ccc(N)cc2)=NN1C1=NCCS1)OCO3 (racemic) [Example 68, (±)-5-(4-Aminophenyl)-7-(4,5-dihydro-thiazol-2-yl)-8-methyl-8,9-dihydro-7H-1,3-dioxolo-[4,5-h][2,3]benzodiazepine]"
7,218 to 220,"CC1Cc2cc3c(cc2C(c2ccc(N)cc2)=NN1C1=NC(=O)CS1)OCO3 (racemic) [Example 71, (±)-5-(4-Aminophenyl)-7-(4,5-dihydro-4-oxo-thiazol-2-yl)-8-methyl-8,9-dihydro-7H-1,3-dioxolo-[4,5-h][2,3]benzodiazepine]"
8,200 to 204,"CC1SC(N2N=C(c3ccc(N)cc3)c3cc4c(cc3CC2C)OCO4)=NC1=O (racemic) [Example 72, (±)-5-(4-Aminophenyl)-7-(4,5-dihydro-5-methyl-4-oxo-thiazol-2-yl)-8-methyl-8,9-dihydro-7H-1,3-dioxolo-[4,5-h][2,3]benzodiazepine]"
9,226 to 228,"CC1Cc2cc3c(cc2C(c2ccc(N)cc2)=NN1C1=NC(=O)CCS1)OCO3 (racemic) [Example 73, (±)-5-(4-Aminophenyl)-7-(5,6-dihydro-4-oxo-4H-1,3-thiazin-2-yl)-8-methyl-8,9-dihydro-7H-1,3-dioxolo-[4,5-h][2,3]benzodiazepine]"
10,105 to 107,"COc1ccc2c(c1)C(c1ccc(N)cc1)=NN(c1nccs1)C(C)C2 (racemic) [Example 76, (±)-1-(4-Aminophenyl)-4-methyl-8-methoxy-3-(2-thiazolyl)-4,5-dihydro-3H-[2,3]benzodiazepine]"
11,182 to 184,"Cc1csc(N2N=C(c3ccc(N)cc3)c3cc(Cl)c(Cl)cc3CC2C)n1 (racemic) [Example 81, (±)-1-(4-Aminophenyl)-7,8-dichloro-3-(4-methyl-thiazol-2-yl)-4-methyl-4,5-dihydro-3H-[2,3]benzodiazepine]"
12,145 to 148,"CC1Cc2cc3c(cc2C(c2ccc(N)cc2)=NN1c1nnc(C2CC2)s1)OCO3 (racemic) [Example 87, (±)-5-(4-Aminophenyl)-7-(5-cyclopropyl-1,3,4-thiadiazol-2-yl)-8-methyl-8,9-dihydro-7H-1,3-dioxolo[4,5-h][2,3]benzodiazepine]"
13,135 to 138,"CC1Cc2cc3c(cc2C(c2ccc(N)cc2)=NN1C1=NN=C(NC2CC2)[SH]1C)OCO3 (racemic) [Example 92, (±)-5-(4-Aminophenyl)-7-(5-cyclopropylamino-methyl-1,3,4-thiadiazol-2-yl)-8-methyl-8,9-dihydro-7H-1,3-dioxolo[4,5-h][2,3]benzodiazepine]"

# Continued, compound first:
row,Structure (SMILES),melting point [°C]
1,"Cc1nnc(N2N=C(c3ccc(N)cc3)c3cc4c(cc3C[C@H]2C)OCO4)s1 (hydrate or solvate) [Example 86, (R)-5-(4-Aminophenyl)-8-methyl-7-(5-methyl-1,3,4-thiadiazol-2-yl)-8,9-dihydro-7H-1,3-dioxolo-[4,5-h][2,3]benzodiazepine]",168 to 170
2,"CC1Cc2cc3c(cc2C(c2ccc(N)cc2)=NN1c1nnc(-c2ccccc2)s1)OCO3 (racemic) (hydrate or solvate) [Example 91, (±)-5-(4-Aminophenyl)-7-(5-phenyl-1,3,4-thiadiazol-2-yl)-8-methyl-8,9-dihydro-7H-1,3-dioxolo-[4,5-h][2,3]benzodiazepine]",228 to 230
3,"CC1Cc2cc3c(cc2C(c2ccc([N+](=O)[O-])cc2)=NN1c1nnc(-c2ccccc2)s1)OCO3 (racemic) [Example 33, (±)-8-Methyl-5-(4-nitrophenyl)-7-(5-phenyl-1,3,4-thiadiazol-2-yl)-8,9-dihydro-7H-1,3-dioxolo[4,5-h][2,3]benzodiazepine]",210 to 212
4,"CC1Cc2cc3c(cc2C(c2ccc([N+](=O)[O-])cc2)=NN1c1nnc(CCl)s1)OCO3 (racemic) [Example 34, (±)-7-(5-Chloromethyl-1,3,4-thiadiazol-2-yl)-8-methyl-5-(4-nitrophenyl)-8,9-dihydro-7H-1,3-dioxolo[4,5-h][2,3]benzodiazepine]",210 to 211
5,"CC1Cc2cc3c(cc2C(c2ccc(N)cc2)=NN1c1nccs1)OCO3 (racemic) [Example 60, (±)-5-(4-Aminophenyl)-8-methyl-7-(2-thiazolyl)-8,9-dihydro-7H-1,3-dioxolo[4,5-h][2,3]benzodiazepine]",187 to 190
6,"Cc1csc(N2N=C(c3ccc(N)cc3)c3cc4c(cc3CC2C)OCO4)n1 (racemic) [Example 63, (±)-5-(4-Aminophenyl)-8-methyl-7-(4-methyl-thiazol-2-yl)-8,9-dihydro-7H-1,3-dioxolo-[4,5-h][2,3]benzodiazepine]",190 to 191
7,"Cc1cnc(N2N=C(c3ccc(N)cc3)c3cc4c(cc3CC2C)OCO4)s1 (racemic) [Example 64, (±)-5-(4-Aminophenyl)-8-methyl-7-(5-methyl-thiazol-2-yl)-8,9-dihydro-7H-1,3-dioxolo-[4,5-h][2,3]benzodiazepine]",165 to 167
8,"Cc1nc(N2N=C(c3ccc(N)cc3)c3cc4c(cc3CC2C)OCO4)sc1C (racemic) [Example 65, (±)-5-(4-Aminophenyl)-8-methyl-7-(4,5-dimethyl-thiazol-2-yl)-8,9-dihydro-7H-1,3-dioxolo-[4,5-h][2,3]benzodiazepine]",240 to 242
9,"CC1Cc2cc3c(cc2C(c2ccc(N)cc2)=NN1c1nc(-c2ccccc2)cs1)OCO3 (racemic) [Example 66, (±)-5-(4-Aminophenyl)-7-(4-phenyl-thiazol-2-yl)-8-methyl-8,9-dihydro-7H-1,3-dioxolo-[4,5-h][2,3]benzodiazepine]",221 to 223
10,"CCOC(=O)c1csc(N2N=C(c3ccc(N)cc3)c3cc4c(cc3CC2C)OCO4)n1 (racemic) [Example 67, (±)-5-(4-Aminophenyl)-7-(4-ethoxycarbonyl-thiazol-2-yl)-8-methyl-8,9-dihydro-7H-1,3-dioxolo-[4,5-h][2,3]benzodiazepine]",251 to 252
11,"Cc1cc(C2=NN(c3nccs3)C(C)Cc3cc4c(cc32)OCO4)ccc1N (racemic) [Example 75, (±)-5-(4-Amino-3-methylphenyl)-8-methyl-7-(2-thiazolyl)-8,9-dihydro-7H-1,3-dioxolo-[4,5-h][2,3]benzodiazepine]",225 to 227
12,"CC1Cc2ccc(Cl)cc2C(c2ccc(N)cc2)=NN1c1nccs1 (racemic) [Example 77, (±)-1-(4-Aminophenyl)-8-chloro-4-methyl-3-(2-thiazolyl)-4,5-dihydro-3H-[2,3]benzodiazepine]",104 to 107
13,"Cc1csc(N2N=C(c3ccc(N)cc3)c3cc(Cl)ccc3CC2C)n1 (racemic) [Example 78, (±)-1-(4-Aminophenyl)-8-chloro-4-methyl-3-(4-methyl-thiazol-2-yl)-4,5-dihydro-3H-[2,3]benzodiazepine]",173 to 175
14,"CC1Cc2ccc(Cl)cc2C(c2ccc(N)cc2)=NN1C1=NCCS1 (racemic) [Example 79, (±)-1-(4-Aminophenyl)-3-(4,5-dihydro-thiazol-2-yl)-8-chloro-4-methyl-4,5-dihydro-3H-[2,3]benzodiazepine]",213 to 216
15,"CC1Cc2ccc(Cl)cc2C(c2ccc(N)cc2)=NN1C1=NC(=O)CS1 (racemic) [Example 80, (±)-1-(4-Aminophenyl)-3-(4,5-dihydro-4-oxo-thiazol-2-yl)-8-chloro-4-methyl-4,5-dihydro-3H-[2,3]benzodiazepine]",226 to 228
16,"CC1Cc2cc3c(cc2C(c2ccc(N)cc2)=NN1C1=NCCO1)OCO3 (racemic) [Example 82, (±)-5-(4-Aminophenyl)-7-(4,5-dihydro-oxazol-2-yl)-8-methyl-8,9-dihydro-7H-1,3-dioxolo-[4,5-h][2,3]benzodiazepine]",166 to 167
17,"Cc1nnc(N2N=C(c3ccc(N)cc3)c3cc4c(cc3CC2C)OCO4)s1 (racemic) [Example 85, (±)-5-(4-Aminophenyl)-8-methyl-7-(5-methyl-1,3,4-thiadiazol-2-yl)-8,9-dihydro-7H-1,3-dioxolo-[4,5-h][2,3]benzodiazepine]",143 to 148
18,"CC1Cc2cc3c(cc2C(c2ccc(N)cc2)=NN1c1nnc(C(F)(F)F)s1)OCO3 (racemic) [Example 90, (±)-5-(4-Aminophenyl)-8-methyl-7-(5-trifluoromethyl-1,3,4-thiadiazol-2-yl)-8,9-dihydro-7H-1,3-dioxolo-[4,5-h][2,3]benzodiazepine]",216 to 218
19,"CC1Cc2ccc(Cl)cc2C(c2ccc(N)cc2)=NN1c1nncs1 (racemic) [Example 93, (±)-1-(4-Aminophenyl)-8-chloro-4-methyl-3-(1,3,4-thiadiazol-2-yl)-4,5-dihydro-3H-[2,3]benzodiazepine]",125 to 128

# Reference: patent US20070027143A1, “Novel substituted 2,3-benzodiazepine derivatives” (priority 2003, published 2007)
